# Experimental data as given in the supplement of paper PMC10307832.
# Assays:
# Assay in all cases: relative viability (nuclei count vs DMSO), 5 days (fraction); higher = more cells survive
# [1] = compound: C[C@@H](C(=O)N[C@@H](C1CCCCC1)C(=O)N2CCC[C@H]2C(=O)N[C@@H]3[C@@H](CC4=CC=CC=C34)OCC#CC#CCO[C@@H]5CC6=CC=CC=C6[C@@H]5NC(=O)[C@@H]7CCCN7C(=O)[C@H](C8CCCCC8)NC(=O)[C@H](C)NC)NC [AZD5582] + COc1cccc2cc(-c3nc([C@H]4CC[C@H](C(=O)O)CC4)n4ncnc(N)c34)[nH]c12 [OSI-027] (partner 0.5 µM)
# Procedure, shortened: (§1)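 Dosing by pin tool came one day after lung cancer cell lines were seeded in 1536-well plates, using either one drug or a fixed anchor-drug dose plus five library-drug doses (not always all listed) in √10 steps. After 5 days, nuclei were counted on 4× images. Relative viability is treated-well nuclei count divided by vehicle-well nuclei count, and values are medians of duplicate plates.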
# [2] = compound: Cn1nnc2c(C(N)=O)ncn2c1=O [Temozolomide] + Nc1nc2[nH]cc(CCc3ccc(C(=O)N[C@@H](CCC(=O)O)C(=O)O)cc3)c2c(=O)[nH]1 [Pemetrexed] (partner 0.2 µM)
# Procedure, shortened: as §1
# [3] = compound: C[C@@H](C(=O)N[C@@H](C1CCCCC1)C(=O)N2CCC[C@H]2C(=O)N[C@@H]3[C@@H](CC4=CC=CC=C34)OCC#CC#CCO[C@@H]5CC6=CC=CC=C6[C@@H]5NC(=O)[C@@H]7CCCN7C(=O)[C@H](C8CCCCC8)NC(=O)[C@H](C)NC)NC [AZD5582]
# Procedure, shortened: (§2)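 Hoechst staining, done together with fixation and permeabilisation, marked nuclei for 4× imaging and MetaXpress counting. This followed 5 days without medium change after lung cancer cell lines, kept overnight at 37 °C in 1536-well plates, were pinned with five library-drug doses (not always all listed) spaced by √10 on vehicle-anchored plates. Viability is the ratio of treated-well to vehicle-well nuclei, expressed as a median across plates. Plates passed only at control CV below 25% with at least one doubling.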
# [4] = compound: Cn1nnc2c(C(N)=O)ncn2c1=O [Temozolomide]
# Procedure, shortened: as §2
cell line,measurement,setting,value
SK-MES-1,relative viability,[1]; first compound 0.001581 µM,0.599
same,relative viability,[1]; first compound 0.005 µM,0.602
same,relative viability,[1]; first compound 0.01581 µM,0.566
same,relative viability,[1]; first compound 0.05 µM,0.591
same,relative viability,[2]; first compound 0.2 µM,1.01
same,relative viability,[2]; first compound 0.6325 µM,0.911
same,relative viability,[2]; first compound 2 µM,0.975
same,relative viability,[2]; first compound 6.325 µM,0.92
same,relative viability,[2]; first compound 20 µM,0.866
same,relative viability,[3]; 0.001581 µM,0.943
same,relative viability,[3]; 0.005 µM,1.15
same,relative viability,[3]; 0.01581 µM,0.972
same,relative viability,[3]; 0.05 µM,1.09
same,relative viability,[4]; 0.2 µM,1.13
same,relative viability,[4]; 0.6325 µM,1.02
same,relative viability,[4]; 2 µM,1.06
same,relative viability,[4]; 6.325 µM,1.05
same,relative viability,[4]; 20 µM,0.889
SW 900,relative viability,[1]; first compound 0.001581 µM,0.412
same,relative viability,[1]; first compound 0.005 µM,0.559
same,relative viability,[1]; first compound 0.01581 µM,0.518
same,relative viability,[1]; first compound 0.05 µM,0.571
same,relative viability,[2]; first compound 0.2 µM,0.525
same,relative viability,[2]; first compound 0.6325 µM,0.496
same,relative viability,[2]; first compound 2 µM,0.507
same,relative viability,[2]; first compound 6.325 µM,0.474
same,relative viability,[2]; first compound 20 µM,0.472
same,relative viability,[3]; 0.001581 µM,0.628
same,relative viability,[3]; 0.005 µM,0.851
same,relative viability,[3]; 0.01581 µM,0.684
same,relative viability,[3]; 0.05 µM,0.466
same,relative viability,[4]; 0.2 µM,1.07
same,relative viability,[4]; 0.6325 µM,1.1
same,relative viability,[4]; 2 µM,0.984
same,relative viability,[4]; 6.325 µM,0.772
same,relative viability,[4]; 20 µM,0.793
SW 1573,relative viability,[1]; first compound 0.001581 µM,0.72
same,relative viability,[1]; first compound 0.005 µM,0.66
same,relative viability,[1]; first compound 0.01581 µM,0.662
same,relative viability,[1]; first compound 0.05 µM,0.862
same,relative viability,[2]; first compound 0.2 µM,0.907
same,relative viability,[2]; first compound 0.6325 µM,0.833
same,relative viability,[2]; first compound 2 µM,0.845
same,relative viability,[2]; first compound 6.325 µM,0.867
same,relative viability,[2]; first compound 20 µM,0.846
same,relative viability,[3]; 0.001581 µM,0.939
same,relative viability,[3]; 0.005 µM,1.04
same,relative viability,[3]; 0.01581 µM,1.03
same,relative viability,[3]; 0.05 µM,1.13
same,relative viability,[4]; 0.2 µM,0.998
same,relative viability,[4]; 0.6325 µM,0.992
same,relative viability,[4]; 2 µM,1.07
same,relative viability,[4]; 6.325 µM,0.948
same,relative viability,[4]; 20 µM,0.971
UMC-11,relative viability,[1]; first compound 0.001581 µM,0.469
same,relative viability,[1]; first compound 0.005 µM,0.53
same,relative viability,[1]; first compound 0.01581 µM,0.476
same,relative viability,[1]; first compound 0.05 µM,0.454
same,relative viability,[2]; first compound 0.2 µM,0.758
same,relative viability,[2]; first compound 0.6325 µM,0.712
same,relative viability,[2]; first compound 2 µM,0.835
same,relative viability,[2]; first compound 6.325 µM,0.805
same,relative viability,[2]; first compound 20 µM,0.588
same,relative viability,[3]; 0.001581 µM,0.887
same,relative viability,[3]; 0.005 µM,1.01
same,relative viability,[3]; 0.01581 µM,0.96
same,relative viability,[3]; 0.05 µM,1.03
same,relative viability,[4]; 0.2 µM,0.994
same,relative viability,[4]; 0.6325 µM,1.06
same,relative viability,[4]; 2 µM,1.05
same,relative viability,[4]; 6.325 µM,0.858
same,relative viability,[4]; 20 µM,0.677
